Test results taken from patent publication US8569267B2, “Tetracyclic tetrahydrofuran derivatives containing cyclic amine side chain” (Janssen Pharmaceutica, NV, priority 2005, dated 2013).
Read-outs that look alike come from different tables or passages of the source.

How the values were obtained:
[1] = target: T1, human cloned 5-HT2C receptor, expressed in CHO cells (Homo sapiens, UniProt P28335); experiment: In vitro binding affinity for 5-HT2C receptor ([3H]mesulergine radioligand binding); conditions: human cloned 5-HT2C receptor; for IC50: read-out: 5-HT2C pIC50 (converted)
T1 construct: expressed in transfected cells; host or cells: CHO cells
T1 sequence (P28335 33-458): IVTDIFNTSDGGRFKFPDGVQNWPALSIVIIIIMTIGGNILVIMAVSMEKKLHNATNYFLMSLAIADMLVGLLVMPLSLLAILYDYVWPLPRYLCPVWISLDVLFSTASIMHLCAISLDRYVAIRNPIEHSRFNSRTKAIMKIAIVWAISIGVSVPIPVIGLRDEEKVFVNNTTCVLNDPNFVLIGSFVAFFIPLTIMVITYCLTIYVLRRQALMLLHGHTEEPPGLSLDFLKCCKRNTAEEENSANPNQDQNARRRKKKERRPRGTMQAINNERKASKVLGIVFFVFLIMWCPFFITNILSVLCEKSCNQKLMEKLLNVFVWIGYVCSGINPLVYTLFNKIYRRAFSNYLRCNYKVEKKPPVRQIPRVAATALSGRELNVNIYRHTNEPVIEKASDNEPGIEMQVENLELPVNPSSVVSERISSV
Summary of the method: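 Competition radioligand binding: varying test-compound concentrations incubated with receptor preparation and radioligand to binding equilibrium. Bound radioactivity separated from free and counted; affinity inferred from concentration-dependent inhibition of radioligand binding.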

[2] = target: T2, NET (norepinephrine transporter) (Rattus norvegicus, UniProt Q63380); experiment: In vitro determination of NET reuptake inhibition ([3H]Nixosetine binding, rat brain cortex); conditions: rat brain cortex; for IC50: read-out: NET pIC50 (converted)
T2 construct: Cortex from rat brain was collected and homogenised; from tissue; host or cells: rat brain cortex
Summary of the method: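 Rat cortex homogenised in Tris 50 mM, NaCl 120 mM, KCl 5 mM, pH 7.4 was used for competition binding against [3H]nisoxetine. Bound radioligand was collected by filtration on GF/B filters and counted by scintillation. Percentage specific binding and competition curves were derived.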

[3] = target: T3, human cloned 5-HT2A receptor, expressed in L929 cells (Homo sapiens, UniProt P28223); experiment: In vitro binding affinity for 5-HT2A receptor ([125I]R91150 radioligand binding)
T3 construct: expressed in transfected cells; host or cells: L929 cells
Protocol: In Vitro Binding Affinity for 5-HT2A and 5-HT2C Receptors
The interaction of the compounds of Formula (I) with 5-HT2A and 5-HT2C receptors was assessed in in vitro radioligand binding experiments. […] During the incubation, the radioligands bind to the receptor. When equilibrium of binding is reached, the receptor bound radioactivity is separated from the non-bound radioactivity, and the receptor bound activity is counted. The interaction of the test compounds with the receptors is assessed in competition binding experiments. Various concentrations of the test compound are added to the incubation mixture containing the tissue preparation and the radioligand. Binding of the radioligand will be inhibited by the test compound in proportion to its binding affinity and its concentration. The affinities of the compounds for the 5-HT2 receptors were measured by means of radioligand binding studies conducted with: (a) human cloned 5-HT2A receptor, expressed in L929 cells using [^125I]R91150 as radioligand and (b) human cloned 5-HT2C receptor, expressed in CHO cells using [^3H]mesulergine as radioligand.

[4] = target: T4, human Dopamine D2L receptor (Homo sapiens, UniProt P14416); experiment: In vitro binding affinity for human D2L receptor ([3H]Spiperone binding); conditions: human D2L receptor-transfected CHO cell membranes; for IC50: read-out: D2L pIC50 (converted)
T4 construct: expressed in transfected cells; host or cells: CHO cells
Summary of the method: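 Membranes from CHO cells transfected with the receptor were incubated with [3H]Spiperone (diluted to 2 nmol/L before addition) and compound for 30 min at 37° C. Buffer was Tris-HCl, pH 7.7, with NaCl, CaCl2, MgCl2 and KCl, and non-specific binding was defined with 10^−6 mol/l Butaclamol. Bound radioactivity was collected by filtration, counted by scintillation, and competition curves calculated as percent specific binding.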

[5] = human cloned 5-HT2A receptor in L929 cells, [125I]R91150, read-out: 5-HT2A pIC50 (converted)
[6] = human cloned 5-HT2A receptor in L929 cells, [125I]R91150

T3 sequence (P28223 whole entry): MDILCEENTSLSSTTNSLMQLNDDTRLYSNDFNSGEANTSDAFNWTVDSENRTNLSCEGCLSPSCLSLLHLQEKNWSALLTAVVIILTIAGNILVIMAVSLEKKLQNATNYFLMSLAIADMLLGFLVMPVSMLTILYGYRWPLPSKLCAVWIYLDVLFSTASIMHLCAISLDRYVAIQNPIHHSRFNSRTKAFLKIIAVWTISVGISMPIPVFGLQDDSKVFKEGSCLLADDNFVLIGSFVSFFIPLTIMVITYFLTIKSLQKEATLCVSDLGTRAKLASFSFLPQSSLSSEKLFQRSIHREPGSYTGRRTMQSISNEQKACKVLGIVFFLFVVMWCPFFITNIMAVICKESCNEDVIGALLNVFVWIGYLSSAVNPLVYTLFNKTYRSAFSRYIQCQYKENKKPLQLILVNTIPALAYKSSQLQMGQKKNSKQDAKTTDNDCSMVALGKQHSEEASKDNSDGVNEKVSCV
T4 sequence (P14416 whole entry): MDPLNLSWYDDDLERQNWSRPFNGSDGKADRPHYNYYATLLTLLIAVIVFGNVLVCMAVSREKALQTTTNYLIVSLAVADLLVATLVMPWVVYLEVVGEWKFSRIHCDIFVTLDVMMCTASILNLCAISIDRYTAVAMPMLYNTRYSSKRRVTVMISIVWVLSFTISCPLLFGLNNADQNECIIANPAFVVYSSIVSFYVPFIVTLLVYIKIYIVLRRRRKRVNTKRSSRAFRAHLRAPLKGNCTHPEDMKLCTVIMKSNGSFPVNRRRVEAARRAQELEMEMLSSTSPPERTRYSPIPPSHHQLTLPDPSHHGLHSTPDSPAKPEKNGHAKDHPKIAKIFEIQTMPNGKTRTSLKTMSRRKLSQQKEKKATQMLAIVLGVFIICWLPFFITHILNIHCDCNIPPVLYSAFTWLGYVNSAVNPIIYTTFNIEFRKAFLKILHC
T2 sequence (Q63380 1-617): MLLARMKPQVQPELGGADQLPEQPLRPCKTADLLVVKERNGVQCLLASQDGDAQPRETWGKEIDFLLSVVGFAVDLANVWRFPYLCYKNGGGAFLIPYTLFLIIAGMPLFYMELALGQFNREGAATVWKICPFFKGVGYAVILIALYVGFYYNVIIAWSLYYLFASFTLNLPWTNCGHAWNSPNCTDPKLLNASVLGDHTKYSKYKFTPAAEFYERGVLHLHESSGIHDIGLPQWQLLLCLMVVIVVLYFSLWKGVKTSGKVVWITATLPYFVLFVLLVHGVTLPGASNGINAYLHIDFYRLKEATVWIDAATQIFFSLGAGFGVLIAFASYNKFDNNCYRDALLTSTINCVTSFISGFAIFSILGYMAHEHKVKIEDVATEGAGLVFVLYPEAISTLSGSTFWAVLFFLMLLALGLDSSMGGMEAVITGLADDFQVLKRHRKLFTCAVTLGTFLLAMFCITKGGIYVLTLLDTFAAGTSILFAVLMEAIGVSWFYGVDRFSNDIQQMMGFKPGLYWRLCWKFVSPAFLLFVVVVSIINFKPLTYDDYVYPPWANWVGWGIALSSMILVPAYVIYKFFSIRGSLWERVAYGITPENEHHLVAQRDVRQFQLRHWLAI

Row | Structure (SMILES) | IC50 [1] [nM] | IC50 [2] [nM] | IC50 [3, 5] [nM] | IC50 [4] [nM] | IC50 [3] [nM] | 5-HT2C pIC50 [1] | NET pIC50 [2] | 5-HT2A pIC50 [3, 6] | D2L pIC50 [4]
1 | O=C(NCCCc1ccccc1)N1CCN(CC2CC3c4ccccc4Cc4ccc(F)cc4C3O2)CC1 (stereo not shown) [Compound 93] | 5.01 | 4170 | 2.57 | 11.7 | – | – | – | – | –
2 | N#Cc1cccc(CN2CCN(CC3CC4c5ccccc5Cc5ccc(F)cc5C4O3)CC2)c1 (stereo not shown) [Compound 70] | 15.8 | 708 | 7.24 | 20.4 | – | – | – | – | –
3 | O=C(NC1CC1)C1CCN(CC2CC3c4ccccc4Cc4ccc(F)cc4C3O2)CC1 (stereo not shown) [Compound 187] | 1.15 | > 10000 | 0.427 | 18.2 | – | – | – | – | –
4 | O=C(NCCC(c1ccccc1)c1ccccc1)C1CCN(CC2CC3c4ccccc4Cc4ccc(F)cc4C3O2)CC1 (stereo not shown) [Compound 198] | 16.2 | 7590 | 8.13 | 25.1 | – | – | – | – | –
5 | O=C(Nc1cccc2cnccc12)C1CCN(CC2CC3c4ccccc4Cc4ccc(F)cc4C3O2)CC1 (stereo not shown) [Compound 192] | 3.8 | 7410 | < 10 | 11.2 | – | – | – | – | –
6 | CCNC(=O)OCC1CCN(CC2CC3c4ccccc4Cc4ccc(F)cc4C3O2)C1 (mixture of isomers) [Compound 20] | 1.41 | 1050 | 0.832 | 3.63 | – | – | – | – | –
7 | CCOC(=O)C1CCCCN1C(=O)C1CCN(CC2CC3c4ccccc4Cc4ccc(F)cc4C3O2)CC1 (mixture of isomers) [Compound 205] | 4.47 | 8510 | < 10 | 12.6 | – | – | – | – | –
8 | COC(=O)c1ccc(CN2CCN(CC3CC4c5ccccc5Cc5ccc(F)cc5C4O3)CC2)cc1 (stereo not shown) [Compound 72] | 60.3 | 1170 | 30.9 | 26.9 | – | – | – | – | –
9 | OC1CCN(CC2CC3c4ccccc4Sc4ccc(F)cc4C3O2)C1 (racemic) [Compound 44] | 9.33 | 282 | < 10 | 10 | – | – | – | – | –
10 | Fc1ccc2c(c1)C1OC(CN3CCN(Cc4cccc(Oc5ccccc5)c4)CC3)CC1c1ccccc1C2 (stereo not shown) [Compound 76] | 102 | 851 | 66.1 | 67.6 | – | – | – | – | –
11 | Fc1ccc2c(c1)C1OC(CN3CCC(Oc4cccc(C(F)(F)F)c4)C3)CC1c1ccccc1C2 (mixture of isomers) [Compound 37] | 7.94 | > 10000 | 22.4 | 32.4 | – | – | – | – | –
12 | OC(COc1ccc(F)cc1)CN1CCN(CC2CC3c4ccccc4Cc4ccc(F)cc4C3O2)CC1 (mixture of isomers) [Compound 57] | 17.8 | > 10000 | 7.24 | 18.6 | – | – | – | – | –
13 | O=C(OC1CCN(CC2CC3c4ccccc4Cc4ccc(F)cc4C3O2)C1)c1ccc(F)cc1 (mixture of isomers) [Compound 16] | 2.82 | 2000 | 5.62 | 5.13 | – | – | – | – | –
14 | O=S(=O)(Cc1ccccc1)N1CCN(CC2CC3c4ccccc4Cc4ccc(F)cc4C3O2)CC1 (stereo not shown) [Compound 105] | 30.9 | > 10000 | 4.68 | 4.07 | – | – | – | – | –
15 | O=C(NCc1ccccc1)OCC1CCN(CC2CC3c4ccccc4Cc4ccc(F)cc4C3O2)C1 (mixture of isomers) [Compound 24] | 1.45 | 2690 | 1.82 | 4.27 | – | – | – | – | –
16 | Fc1ccc(OC2CCN(CC3CC4c5ccccc5Cc5ccc(F)cc5C4O3)C2)cc1 (mixture of isomers) [Compound 36] | 4.68 | 4070 | 12.3 | 21.9 | – | – | – | – | –
17 | OC1CCN(C[C@@H]2C[C@@H]3c4ccccc4Sc4ccc(F)cc4[C@H]3O2)C1 (relative stereo) [Compound 43] | 1.29 | 1700 | < 10 | 57.5 | – | – | – | – | –

Row | Structure (SMILES) | IC50 [1] [nM] | IC50 [2] [nM] | IC50 [3, 5] [nM] | IC50 [4] [nM] | IC50 [3] [nM] | 5-HT2C pIC50 [1] | NET pIC50 [2] | 5-HT2A pIC50 [3, 6] | D2L pIC50 [4]
18 | Fc1ccc2c(c1)C1OC(CN3CCN(CC=Cc4ccccc4)CC3)CC1c1ccccc1C2 (stereo not shown) [Compound 48] | 32.4 | 2090 | 30.9 | 9.55 | – | – | – | – | –
19 | OC1(c2ccc(F)cc2)CCN(CC2CC3c4ccccc4Cc4ccc(F)cc4C3O2)C1 (mixture of isomers) [Compound 41] | 2.29 | 7080 | 1.82 | 4.27 | – | – | – | – | –
20 | O=C(NC1CCCCCCC1)N1CCN(C[C@H]2C[C@@H]3c4ccccc4Cc4ccc(F)cc4[C@@H]3O2)CC1 [Compound 98] | 19.5 | 9550 | 3.39 | 42.7 | – | – | – | – | –
21 | COc1ccc(C)c(NC(=O)C2CCN(CC3CC4c5ccccc5Cc5ccc(F)cc5C4O3)CC2)c1 (stereo not shown) [Compound 191] | 3.47 | 9120 | < 10 | 11.7 | – | – | – | – | –
22 | COCC1(O)CCN(C[C@H]2C[C@@H]3c4ccccc4Cc4ccc(F)cc4[C@@H]3O2)CC1 [Compound 272] | 0.741 | 724 | 1.23 | 2.14 | – | – | – | – | –
23 | Fc1ccc2c(c1)C1OC(CN3CCN(c4ccc(C(F)(F)F)cn4)CC3)CC1c1ccccc1C2 (stereo not shown) [Compound 120] | 87.1 | > 10000 | 35.5 | 363 | – | – | – | – | –
24 | CCN(CC)CCN(C)C(=O)C1CCN(CC2CC3c4ccccc4Cc4ccc(F)cc4C3O2)CC1 (stereo not shown) [Compound 199] | 1.2 | > 10000 | 6.46 | 35.5 | – | – | – | – | –
25 | Cc1ccc(S(=O)(=O)N2CCN(CC3CC4c5ccccc5Cc5ccc(F)cc5C4O3)CC2)cc1 (stereo not shown) [Compound 107] | 331 | > 10000 | 83.2 | 81.3 | – | – | – | – | –
26 | N#Cc1ccc(C(=O)NC2CCN(CC3CC4c5ccccc5Cc5ccc(F)cc5C4O3)CC2)cc1 (stereo not shown) [Compound 236] | 9.55 | > 10000 | 1.51 | 6.76 | – | – | – | – | –
27 | O=C(NC1CCCCC1)OCC1CCN(CC2CC3c4ccccc4Cc4ccc(F)cc4C3O2)C1 (mixture of isomers) [Compound 21] | 2.88 | 1450 | 1.91 | 7.24 | – | – | – | – | –
28 | CN(C)C(=O)CC1CN(C[C@H]2C[C@@H]3c4ccccc4Cc4ccc(F)cc4[C@@H]3O2)CCO1 (stereo partly shown) [Compound 136] | 3.31 | 70.8 | 1.58 | 24.5 | – | – | – | – | –
29 | O=C(Cc1ccccc1)OC1CCN(CC2CC3c4ccccc4Cc4ccc(F)cc4C3O2)C1 (mixture of isomers) [Compound 18] | 3.63 | 1780 | – | 10.2 | 6.03 | – | – | – | –
30 | CC(=O)C1(c2ccccc2)CCN(C[C@H]2C[C@@H]3c4ccccc4Cc4ccc(F)cc4[C@@H]3O2)CC1.O=C(O)C(=O)O [Compound 273] | – | – | – | – | – | 8.24 | <5 | 8.48 | 7.71
31 | Fc1ccc2c(c1)C1OC(CN3CCN(Cc4cc5ccccc5o4)CC3)CC1c1ccccc1C2 (stereo not shown) [Compound 64] | 28.8 | 2690 | 26.3 | 15.5 | – | – | – | – | –
32 | CC1CN(CC2CC3c4ccccc4Cc4ccc(F)cc4C3O2)C(C)CN1.O=C(O)C(=O)O (mixture of isomers) [Compound 280] | – | – | – | – | – | 6.53 | <5 | 6.53 | 5.40
33 | O=C(O)C1CCN(C[C@H]2C[C@@H]3c4ccccc4Cc4ccc(F)cc4[C@@H]3O2)C1 (stereo partly shown) [Compound 10] | 13.5 | > 10000 | 17.4 | 437 | – | – | – | – | –
34 | C=CCOC(=O)N1CCN(CC2CC3c4ccccc4Cc4ccc(F)cc4C3O2)CC1 (stereo not shown) [Compound 84] | 25.1 | > 10000 | 8.13 | 25.7 | – | – | – | – | –
